From patent US11744816B2, “Fixed dose combinations and formulations comprising ETC1002 and ezetimibe and methods of treating or reducing the risk of cardiovascular disease” (Esperion Therapeutics, Inc., priority 2015, dated 2023)

Experiments:
[1] = system: hypercholesterolemic patients; assay: Phase 2b double-blind trial: percent changes from baseline to week 12 in lipids and CRP; assay type: in vivo, human
Experimental: LDL-C was calculated using the Friedewald equation.
The primary endpoint was the percent change from baseline to week 12 in calculated LDL-C in patients treated with ETC-1002 monotherapy versus those treated with EZE alone. Secondary endpoints included the dose-response relationship between ETC-1002 and the percent change in LDL-C from baseline to week 12, the percent change in LDL-C from baseline to week 12 in patients treated with ETC-1002 plus EZE versus those treated with EZE alone, and the percent change from baseline to week 12 for all treatment groups in LDL particle number, apolipoprotein B, total cholesterol, non-high-density lipoprotein cholesterol (non-HDL-C), HDL-C, HDL particle number, apolipoprotein A-I, triglycerides, very-low-density lipoprotein (VLDL) particle number, and high-sensitivity C-reactive protein (CRP). Lipoprotein particle number was measured using nuclear magnetic resonance […].
An analysis of covariance was used to compare each ETC-1002 treatment group with EZE monotherapy for each of the efficacy endpoints. The primary model included the effects of treatment and statin intolerance and the baseline value as a covariate. Baseline was defined as the mean of values from weeks −1 and 0 for LDL-C, non-HDL-C, total cholesterol, HDL-C, and triglycerides. For all other lipid and biomarker measures, baseline was defined as the last value before the first dose of study drug. Missing values at week 12 were imputed using the last-observation-carried-forward procedure. When LDL-C could not be calculated (i.e., triglycerides >400 mg/dL), beta-quantification measurements were used to determine LDL-C values. Least-squares (LS) means and standard errors were obtained for each treatment group; differences in LS means and p-values were obtained for the treatment comparisons. Graphical methods (e.g., normal probability plot and histogram of residuals, plot of residuals vs. predicted values) or analytical methods (e.g., Shapiro-Wilk test), or both, were used to assess the model assumptions. Because of departures from normality observed in the parameters of triglycerides, CRP, and VLDL particle number, nonparametric analyses were performed for these measures, with p-values obtained from the Wilcoxon rank-sum test and median values presented.
Percent changes from baseline in LDL-C also were summarized by statin-tolerance subgroup. To assess the dose-response relationship for ETC-1002 monotherapy, the primary analysis of covariance model was used for the comparison of the ETC-1002 120 mg and ETC-1002 180 mg. Statistical testing of the efficacy endpoints was 2-sided and conducted at the 5% level of significance with no adjustment for multiple comparisons.

[2] = system: hypercholesterolemic patients; assay: Phase 2b double-blind trial: safety, treatment-emergent adverse events and laboratory abnormalities
Experimental: The study population included both statin-tolerant and statin-intolerant participants. Statin intolerance was defined as the inability to tolerate ≥2 statins because of muscle-related symptoms such as pain, weakness, or cramping that began or increased during statin therapy and resolved on statin discontinuation. At least 1 statin must have been administered at the lowest approved daily dose, defined as rosuvastatin 5 mg, atorvastatin 10 mg, simvastatin 10 mg, lovastatin 20 mg, pravastatin 40 mg, fluvastatin 40 mg, or pitavastatin 2 mg. Treatment with less than the lowest approved daily dose of a statin (i.e., skipping days) was considered equivalent to not tolerating 1 statin at the lowest approved daily dose.
Patients underwent a 5-week washout of all lipid-regulating drugs and dietary supplements and abstained from these drugs and supplements throughout the study. Patients also underwent a 5-week patient-only-blinded placebo run-in during the screening period (week −5 to week 0). This single-blind placebo run-in period was used to eliminate patients with muscle-related AEs during placebo treatment. Patients reporting new or worsening, unexplained muscle-related AEs during this run-in period were excluded from the study.
Patients were stratified (1:1) by history of statin intolerance and randomized at week 0 in a 4:4:4:1:1 ratio to once-daily treatment with capsules containing ETC-1002 120 mg, ETC-1002 180 mg, EZE, ETC-1002 120 mg plus EZE, or ETC-1002 180 mg plus EZE.
The safety of ETC-1002 was assessed using treatment-emergent AEs; hematology, serum chemistry, and urinalysis laboratory values; physical examination findings, vital sign measurements, electrocardiogram (ECG) readings; weight; and ankle and waist circumference measurements. AEs were coded using the Medical Dictionary for Regulatory Activities version 16.0 and evaluated by the investigator for severity and relation to study drug. Muscle-related AEs were defined as those from the system organ class of musculoskeletal and connective tissue disorders, except for those that were not obviously muscle related Terms included in the muscle-related AFE analysis were selected from this system organ class after database lock and before unblinding.
Safety analyses were performed on the safety population, which included randomized patients who received at least 1 dose of study drug. Baseline patient characteristics were summarized for the safety population by treatment group and statin-tolerance subgroup.
Muscle-related AEs also were summarized by statin-tolerance subgroup.

[3] = EZE 10 mg once daily, 12 weeks, mITT, LS mean ± SE
[4] = EZE 10 mg once daily, 12 weeks, safety population
[5] = EZE 10 mg once daily, 12 weeks, statin-intolerant patients
[6] = EZE 10 mg once daily, 12 weeks, statin-tolerant patients

## O=C1[C@H](CC[C@H](O)c2ccc(F)cc2)[C@@H](c2ccc(O)cc2)N1c1ccc(F)cc1 [EZE, (3R,4S)-1-(4-fluorophenyl)-3-[(3S)-3-(4-fluorophenyl)-3-hydroxypropyl]-4-(4-hydroxyphenyl)azetidin-2-one, reference compound]
[1]; [3]
  Percent change from baseline to week 12 in Apolipoprotein A-I: 2.0 ± 1.1%
  Percent change from baseline to week 12 in Apolipoprotein B: −15.2 ± 1.2%
  Percent change from baseline to week 12 in HDL particle number: 6.7 ± 1.3%
  Percent change from baseline to week 12 in HDL-C: 5.0 ± 1.4%
  Percent change from baseline to week 12 in LDL particle number: −12.7 ± 1.7%
  Percent change from baseline to week 12 in LDL-C: −21.2 ± 1.3%
  Percent change from baseline to week 12 in Non-HDL-C: −18.7 ± 1.2%
  Percent change from baseline to week 12 in Total cholesterol: −14.3 ± 0.9%
[1]; EZE 10 mg once daily, 12 weeks, mITT, median (interquartile range)
  Percent change from baseline to week 12 in VLDL particle number: −12.6 (63.4) %
[1]; EZE alone
  CRP reduction: 10%
[1]; EZE alone, week 12
  HDL-C increase: 5%
[2]; EZE
  Alanine aminotransferase or aspartate aminotransferase, or both, increased >3 times the upper limit of normal at any measurement: 1 patients
  Serious AEs reported (events): transient ischemic attack
[2]; [4]
  Most common AEs: ALT increased: 1 (1%) n (%)
  Most common AEs: AST increased: 0 n (%)
  Most common AEs: Arthralgia: 4 (4%) n (%)
  Most common AEs: Back pain: 8 (8%) n (%)
  Most common AEs: Blood CK increased: 1 (1%) n (%)
  Most common AEs: Constipation: 1 (1%) n (%)
  Most common AEs: Headache: 1 (1%) n (%)
  Most common AEs: Myalgia: 6 (6%) n (%)
  Most common AEs: Nasopharyngitis: 4 (4%) n (%)
  Most common AEs: Upper respiratory tract infection: 1 (1%) n (%)
  Most common AEs: Urinary tract infection: 6 (6%) n (%)
  Treatment-emergent AEs: Any AE(s): 53 (54%) n (%)
  Treatment-emergent AEs: Discontinuation due to AE(s): 8 (8%) n (%)
  Treatment-emergent AEs: Serious AE(s): 1 (1%) n (%)
  Treatment-emergent AEs: Study drug-related AE(s): 19 (19%) n (%)
[2]; [5]
  Any muscle-related AE: 9 (18%) n (%)
  Muscle-related AE leading to discontinuation: 5 (10%) n (%)
  Muscle-related AEs: Muscle spasms: 1 (2%) n (%)
  Muscle-related AEs: Muscular weakness: 1 (2%) n (%)
  Muscle-related AEs: Musculoskeletal chest pain: 0 n (%)
  Muscle-related AEs: Musculoskeletal stiffness: 1 (2%) n (%)
  Muscle-related AEs: Myalgia: 6 (12%) n (%)
  Muscle-related AEs: Pain in extremity: 3 (6%) n (%)
  Muscle-related AEs: Sensation of heaviness: 1 (2%) n (%)
[2]; [6]
  Any muscle-related AE: 3 (6%) n (%)
  Muscle-related AE leading to discontinuation: 1 (2%) n (%)
  Muscle-related AEs: Muscle spasms: 2 (4%) n (%)
  Muscle-related AEs: Musculoskeletal pain: 1 (2%) n (%)
  Muscle-related AEs: Myalgia: 0 n (%)
[2]; EZE alone, entire study population
  Myalgia, patients affected: 6%
